Source: ChEMBL document CHEMBL3271946, “Synthesis and adrenoreceptor blocking action of aziridinium ions derived from phenoxybenzamine and dibenamine” (J Med Chem, 1976)
The source made the active and inactive calls. No cut-off for these calls is given here.

Experiments:
[1] = target: T1, Adrenergic receptor alpha (Rattus norvegicus) (UniProt P15823+P23944+P43140+P22086+P19328+P22909); experiment: Antagonist activity at alpha-adrenergic receptor in blockade of norepinephrine-induced response in rat vas deferens after 3 mins; type: tissue-based
Vas deferens = experiment: Blockade of serotonin-induced response in rat vas deferens after 3 mins; type: functional, tissue-based
[2] = Half life in krebs solution assessed as hydrolysis at 0.003 M at 37 degC; type: physicochemical
[3] = target: T1, Adrenergic receptor alpha (Rattus norvegicus); experiment: Antagonist activity at alpha-adrenergic receptor in blockade of norepinephrine-induced response in rat vas deferens after 3 mins measured after compound washout; type: tissue-based
[4] = Half life in 80% aqueous Me2CO solution assessed as compound cyclization at 5x10'-4 M; type: physicochemical; details: 80% aqueous acetone (Me2CO) solution
[5] = Half life in 0.025 M NaHCo3 solution assessed as compound cyclization at 5x10'-4 M; type: physicochemical

| Compound | inhibition [1] | inhibition (Vas deferens) | half-life at 0.003 M [2] | inhibition [3] | half-life at 500 µM [4] | half-life at 500 µM [5] |
| --- | --- | --- | --- | --- | --- | --- |
| [O-][Cl+3]([O-])([O-])[O-].c1ccc(C[N+]2(Cc3ccccc3)CC2)cc1 | Active | Active | 14 min | Active | – | – |
| CC(COc1ccccc1)N(CCCl)Cc1ccccc1.Cl (stereo not drawn) [PHENOXYBENZAMINE HYDROCHLORIDE] | Active | Active | – | Active | 0.61 min | 2.3 min |
| Cl.ClCCN(Cc1ccccc1)Cc1ccccc1 | Active | Active | – | Active | 1.6 min | 6.1 min |
| CC(COc1ccccc1)[N+]1(Cc2ccccc2)CC1.[O-][Cl+3]([O-])([O-])[O-] (stereo not drawn) | Active | Active | 19 min | Active | – | – |
